Assay results reported in patent publication US7094781B2, “Sulfamides and their use as endothelin receptor antagonists” (Actelion Pharmaceuticals Ltd., priority 2000, dated 2006).
Where two headings read alike, the source gives them in different places.

Tests used:
[1] = target: T1, human recombinant ETA receptor (Homo sapiens, UniProt P25101); assay: Inhibition of [125I]ET-1 binding to membranes from CHO cells carrying human ETA receptors
T1 construct: expressed in transfected cells; host or cells: CHO cells (microsomal membranes)
T1 sequence (P25101 21-427): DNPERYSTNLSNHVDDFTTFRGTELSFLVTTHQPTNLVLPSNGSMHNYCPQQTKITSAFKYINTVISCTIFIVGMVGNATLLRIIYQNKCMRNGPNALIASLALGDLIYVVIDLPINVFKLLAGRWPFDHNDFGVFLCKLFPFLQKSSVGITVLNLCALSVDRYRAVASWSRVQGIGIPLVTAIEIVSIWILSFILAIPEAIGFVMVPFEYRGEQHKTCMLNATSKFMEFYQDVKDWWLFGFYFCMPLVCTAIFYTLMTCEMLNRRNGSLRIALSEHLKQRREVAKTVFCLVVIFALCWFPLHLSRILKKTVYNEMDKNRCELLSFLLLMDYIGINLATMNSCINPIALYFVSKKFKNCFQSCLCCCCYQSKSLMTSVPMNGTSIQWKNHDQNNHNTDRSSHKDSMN

[2] = target: T2, human recombinant ETB receptor (Homo sapiens, UniProt P24530); assay: Inhibition of [125I]ET-1 binding to membranes from CHO cells carrying human ETB receptors
T2 construct: expressed in transfected cells; host or cells: CHO cells (microsomal membranes)
T2 sequence (P24530 27-442): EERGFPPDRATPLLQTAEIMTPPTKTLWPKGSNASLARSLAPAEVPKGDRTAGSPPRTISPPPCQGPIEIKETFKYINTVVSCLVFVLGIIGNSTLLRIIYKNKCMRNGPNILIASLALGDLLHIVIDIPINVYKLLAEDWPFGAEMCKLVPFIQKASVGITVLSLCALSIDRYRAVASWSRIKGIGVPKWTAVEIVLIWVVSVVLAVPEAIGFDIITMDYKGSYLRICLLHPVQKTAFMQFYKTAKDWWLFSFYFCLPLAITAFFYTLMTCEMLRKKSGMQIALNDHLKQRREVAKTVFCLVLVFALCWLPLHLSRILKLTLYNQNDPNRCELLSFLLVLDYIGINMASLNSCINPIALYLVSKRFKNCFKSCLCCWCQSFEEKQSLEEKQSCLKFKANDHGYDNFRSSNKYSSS

[3] = target: T3, ETA receptors (rat aortic rings) (Rattus norvegicus, UniProt P26684); assay: Inhibition of endothelin-1-induced contraction on isolated rat aortic rings
T3 construct: The thoracic aorta or trachea were excised, dissected and cut in 3–5 mm rings; from tissue; host or cells: thoracic aorta rings of adult Wistar rats, endothelium removed
T3 sequence (P26684 21-426): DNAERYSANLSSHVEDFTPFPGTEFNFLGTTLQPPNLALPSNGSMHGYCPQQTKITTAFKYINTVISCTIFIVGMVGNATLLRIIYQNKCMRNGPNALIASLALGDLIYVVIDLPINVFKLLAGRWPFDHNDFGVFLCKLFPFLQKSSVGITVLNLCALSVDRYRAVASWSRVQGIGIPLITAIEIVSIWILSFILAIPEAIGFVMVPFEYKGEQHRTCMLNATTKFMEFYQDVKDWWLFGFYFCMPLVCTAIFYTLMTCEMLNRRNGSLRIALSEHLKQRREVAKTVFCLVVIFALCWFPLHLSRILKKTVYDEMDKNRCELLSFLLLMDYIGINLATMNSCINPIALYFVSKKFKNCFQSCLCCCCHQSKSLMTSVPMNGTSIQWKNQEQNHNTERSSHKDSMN

[4] = target: T4, ETB receptors (rat tracheal rings) (Rattus norvegicus, UniProt P21451); assay: Inhibition of sarafotoxin S6c-induced contraction on isolated rat tracheal rings; settings: rat tracheal rings, contraction induced by sarafotoxin S6c, 10 min incubation; read-out: pA2 value ETB (converted)
T4 construct: The thoracic aorta or trachea were excised, dissected and cut in 3–5 mm rings; from tissue; host or cells: tracheal rings of adult Wistar rats, epithelium removed
T4 sequence (P21451 27-442): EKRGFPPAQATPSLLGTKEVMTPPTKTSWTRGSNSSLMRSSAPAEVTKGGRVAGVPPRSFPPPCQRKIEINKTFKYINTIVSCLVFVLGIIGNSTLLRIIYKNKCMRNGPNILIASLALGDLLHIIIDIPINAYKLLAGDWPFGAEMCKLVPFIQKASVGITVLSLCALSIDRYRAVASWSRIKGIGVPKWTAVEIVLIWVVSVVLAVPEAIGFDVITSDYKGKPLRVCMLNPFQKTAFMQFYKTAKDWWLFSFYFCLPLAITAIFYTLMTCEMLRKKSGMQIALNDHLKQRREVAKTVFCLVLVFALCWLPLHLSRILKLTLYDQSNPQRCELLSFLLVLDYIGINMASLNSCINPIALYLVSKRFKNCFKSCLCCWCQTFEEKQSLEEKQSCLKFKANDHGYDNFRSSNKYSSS

[5] = read-out: pA2 value ETA (converted)

Structure (SMILES)	IC50 [1]	IC50 [2]	Kb [3, 5]	Kb [3]	Kb [4]
COc1ccccc1Oc1c(NS(=O)(=O)Nc2ccc(C(C)C)cc2)nc(-c2ccncc2)nc1OCCOc1ncc(Br)cn1 [Example 5, 4-i-propyl-phenyl sulfamic acid-[6-[2-(5-bromo-pyrimidin-2-yloxy)-ethoxy]-5-(o-methoxy-phenoxy)-2-(4-pyridyl)-pyrimidin-4-yl]-amide]	0.028 µM	1.28 µM	0.224 µM	–	–
O=S(=O)(NCc1cccs1)Nc1ncnc(OCCOc2ncc(Br)cn2)c1-c1ccc(Cl)cc1 [Example 20]	0.0049 µM	1.72 µM	–	0.0617 µM	–
COc1ccccc1Oc1c(NS(=O)(=O)NCc2ccccc2)nc(-c2ncccn2)nc1OCCOC(=O)Nc1ccccn1 [Example 41]	0.0032 µM	0.0416 µM	–	0.00427 µM	–
Cc1ccc(-c2c(NS(=O)(=O)NCC3CC3)ncnc2OCCOc2ncc(Br)cn2)cc1 [Example 119]	0.0042 µM	> 1 µM	–	0.0417 µM	–
COc1ccccc1Oc1c(NS(=O)(=O)NCC2CCCCC2)nc(-c2ncccn2)nc1OCCOc1ncc(Br)cn1 [Example 133]	0.0017 µM	0.212 µM	–	0.0191 µM	–
COc1ccc(CNS(=O)(=O)Nc2nc(-c3ccncc3)nc(OC)c2Oc2ccccc2OC)cc1 [Example 161]	0.0062 µM	> 1 µM	–	0.513 µM	–
COc1ccccc1Oc1c(NS(=O)(=O)NCCc2ccccc2)nc(-c2ccncc2)nc1OCCOc1ncc(Br)cn1 [Example 182]	0.029 µM	1.87 µM	–	–	–
COc1cnc(OCCOc2nc(-c3ncccn3)nc(NS(=O)(=O)NC3CC3)c2Oc2ccccc2OC)nc1 [Example 200]	0.023 µM	0.31 µM	–	–	–
COc1ccccc1Oc1c(NS(=O)(=O)NCc2ccccc2)nc(SC)nc1OCCO [Example 203, benzylsulfamic acid [6-(2-hydroxy-ethoxy)-5-(2-methoxy-phenoxy)-2-methylsulfanyl-pyrimidin-4-yl]-amide]	–	–	0.0204 µM	–	1.45 µM
COc1ccccc1Oc1c(NS(=O)(=O)NCc2ccccc2)nc(S(C)(=O)=O)nc1OCCO [Example 204, Benzylsulfamic acid [6-(2-hydroxy-ethoxy)-2-methanesulfonyl-5-(2-methoxy-phenoxy)-pyrimidin-4-yl]-amide]	0.39 µM	1.05 µM	–	–	–
COc1ccccc1Oc1c(NS(=O)(=O)NCc2ccccc2)nc(N2CCOCC2)nc1OCCO [Example 205, benzylsulfamic acid [6-(2-hydroxy-ethoxy)-5-(2-methoxy-phenoxy)-2-morpholin-4-yl-pyrimidin-4-yl]-amide]	0.135 µM	0.623 µM	–	–	–
C=CCOc1nc(-c2ccnc(-c3nnn[nH]3)c2)nc(NS(=O)(=O)NCc2ccccc2)c1Oc1ccccc1OC [Example 209, Benzylsulfamic acid [6-allyloxy-5-(2-methoxy-phenoxy)-2-[2-(1H-tetrazol-5-yl)-pyridin-4-yl]-pyrimidin-4-yl]-amide]	0.733 µM	> 1 µM	–	–	–
C#CCOc1nc(-c2ccnc(-c3nnn[nH]3)c2)nc(NS(=O)(=O)NCc2ccccc2)c1Oc1ccccc1OC [Example 210, Benzylsulfamic acid [5-(2-methoxy-phenoxy)-6-prop-2-ynyloxy-2-[2-(1H-tetrazol-5-yl)-pyridin-4-yl]-pyrimidin-4-yl]-amide]	0.023 µM	0.936 µM	–	–	–
COc1ccc(Cl)c(Oc2c(NS(=O)(=O)NCc3ccccc3)ncnc2OCCO)c1 [Example 211, Benzylsulfamic acid [5-(2-chloro-5-methoxy-phenoxy)-6-(2-hydroxy-ethoxy)-pyrimidin-4-yl]-amide]	0.29 µM	0.722 µM	–	–	–

Further molecules by falling IC50 [1], results first:

IC50 [1]	IC50 [2]	Kb [3, 5]	Structure (SMILES)	Kb [3]	Kb [4]
0.017 µM	> 1 µM	–	COc1ccccc1Oc1c(NS(=O)(=O)NCc2ccccc2)nc(-c2ccnc(-c3nnn[nH]3)c2)nc1OC [Example 207, benzylsulfamic acid [6-methoxy-5-(2-methoxy-phenoxy)-2-[2-(1H-tetrazol-5-yl)-pyridin-4-yl]-pyrimidin-4-yl]-amide]	–	–
0.017 µM	0.342 µM	–	COc1ccccc1Oc1c(NS(=O)(=O)NCc2ccccc2)nc(-c2ccnc(-c3nnn[nH]3)c2)nc1OCCO [Example 208, Benzylsulfamic acid [6-(2-hydroxy-ethoxy)-5-(2-methoxy-phenoxy)-2-[2-(1H-tetrazol-5-yl)-pyridin-4-yl]-pyrimidin-4-yl]-amide]	–	–
0.016 µM	–	0.0148 µM	COc1ccccc1Oc1c(NS(=O)(=O)NCc2ccccc2)nc(-c2ncccn2)nc1OCCOc1ncc(Br)cn1 [Example 37]	–	–
0.0134 µM	0.306 µM	0.282 µM	COc1ccc(CNS(=O)(=O)Nc2nc(-c3ncccn3)nc(OC)c2Oc2ccccc2OC)cc1 [Example 51]	–	–
0.012 µM	0.205 µM	–	COc1ccccc1Oc1c(NS(=O)(=O)NC2CC2)nc(-c2ncccn2)nc1OCCOc1ncc(Br)cn1 [Example 199]	–	–
0.011 µM	0.29 µM	–	COc1cnc(OCCOc2nc(-c3ncccn3)nc(NS(=O)(=O)N(C)Cc3ccccc3)c2Oc2ccccc2OC)nc1 [Example 188]	–	–
0.0096 µM	0.351 µM	–	COc1ccccc1Oc1c(NS(=O)(=O)NC2CC2)nc(-c2ccncc2)nc1OCCOc1ncc(Br)cn1 [Example 202]	–	–
0.0095 µM	> 1 µM	–	COc1cnc(OCCOc2ncnc(NS(=O)(=O)N(C)Cc3ccccc3)c2-c2ccc(Cl)cc2)nc1 [Example 194]	–	–
0.0056 µM	–	0.00398 µM	O=S(=O)(NCc1ccccc1)Nc1ncnc(OCCOc2ncc(Br)cn2)c1-c1ccc(Cl)cc1 [Example 14, benzyl sulfamic acid-[6-[2-(5-bromo-pyrimidin-2-yloxy)-ethoxy]-5-(4-chlorophenyl)-4-pyrimidinyl]-amide]	–	–
0.0036 µM	> 1 µM	–	CN(Cc1ccccc1)S(=O)(=O)Nc1ncnc(OCCOc2ncc(Br)cn2)c1-c1ccc(Cl)cc1 [Example 193]	–	–
0.0035 µM	0.864 µM	0.00178 µM	Cc1ccc(-c2c(NS(=O)(=O)NCc3ccccc3)nc(-c3ccncc3)nc2OCCOc2ncc(Br)cn2)cc1 [Example 32]	–	–
0.00132 µM	0.347 µM	–	COc1ccc(Cl)c(Oc2c(NS(=O)(=O)NCc3ccccc3)ncnc2OCCOc2ncc(SC)cn2)c1 [Example 213, Benzylsulfamic acid [6-[2-(5-methylsulfanyl-pyrimidin-2-yloxy)-ethoxy]-5-(2-chloro-5-methoxy-phenoxy)-pyrimidin-4-yl]-amide]	–	–
0.00116 µM	0.418 µM	–	CSc1cnc(OCCOc2ncnc(NS(=O)(=O)NC3CC3)c2-c2ccc(Br)cc2)nc1 [Example 197]	–	–
0.00076 µM	–	0.00363 µM	O=S(=O)(NCc1ccccc1)Nc1ncnc(OCCOc2ncc(Br)cn2)c1-c1ccc(Br)cc1 [Example 100]	–	–
0.00076 µM	0.241 µM	–	COc1ccc(Cl)c(Oc2c(NS(=O)(=O)NCc3ccccc3)ncnc2OCCOc2ncc(S(C)(=O)=O)cn2)c1 [Example 214, Benzylsulfamic acid [5-(2-chloro-5-methoxy-phenoxy)-6-[2-(5-methanesulfonyl-pyrimidin-2-yloxy)-ethoxy]-pyrimidin-4-yl]-amide]	–	–
